What was measured:
[1] = biological target: T1, Myt1 kinase (recombinant PMYT-1) (Homo sapiens, UniProt Q99640); experiment: Myt1 kinase binding assay (LanthaScreen Eu Kinase Binding Assay); details: 3 nM tracer 178, 2.5 nM PMYT-1, 1 nM Eu-labeled antibody; read-out: Myt1 kinase Binding IC50
T1 construct: full length PMYT-1 was expressed by baculovirus in insect cells; purchased Invitrogen A30984; host or cells: insect cells (baculovirus)
T1 sequence (Q99640 1-499): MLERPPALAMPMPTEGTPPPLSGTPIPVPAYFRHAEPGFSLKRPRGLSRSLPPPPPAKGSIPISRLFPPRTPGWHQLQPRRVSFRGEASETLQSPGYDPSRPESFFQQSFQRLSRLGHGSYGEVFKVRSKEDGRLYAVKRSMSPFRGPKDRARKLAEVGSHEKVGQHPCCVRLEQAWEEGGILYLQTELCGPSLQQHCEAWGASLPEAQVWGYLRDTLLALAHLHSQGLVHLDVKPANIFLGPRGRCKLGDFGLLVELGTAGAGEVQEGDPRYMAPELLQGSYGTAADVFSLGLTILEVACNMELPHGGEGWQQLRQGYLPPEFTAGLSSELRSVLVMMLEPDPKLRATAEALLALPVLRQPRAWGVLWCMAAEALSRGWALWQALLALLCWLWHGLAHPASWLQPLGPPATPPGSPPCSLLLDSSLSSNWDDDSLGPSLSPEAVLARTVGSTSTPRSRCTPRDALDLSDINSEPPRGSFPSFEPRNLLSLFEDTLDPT
Procedure, shortened: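 Compound binding to Myt1 kinase was assessed using the LanthaScreen Eu Kinase Binding Assay. This europium-based binding format was applied to quantify how strongly each compound bound to the Myt1 enzyme, and the binding affinity was reported for each compound as an IC50 value.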

[2] = biological target: T2, recombinant human Wee1A kinase (Homo sapiens, UniProt P30291); experiment: Wee1A kinase binding assay (LanthaScreen Eu time-resolved FRET); details: 30 nM tracer 178, 5 nM Wee1A kinase, 2 nM Eu-labeled antibody; 60 minutes at room temperature; read-out: Wee1A kinase Binding IC50
T2 construct: full length Wee1 kinase was expressed by baculovirus in insect cells; purchased Invitrogen PV3817; host or cells: insect cells (baculovirus)
Procedure, shortened: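 Full-length, baculovirus-expressed GST-tagged Wee1A (5 nM) was mixed with 2 nM Eu-anti-GST antibody, 30 nM kinase tracer 178 and compound (1% DMSO). Buffer was 50 mM HEPES pH 7.5, 10 mM MgCl2, 1 mM EGTA, 0.01% Brij-35, incubated 60 min at room temperature. TR-FRET 665/615 nm emission ratios from duplicates were curve-fitted.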

[3] = biological target: T3, Wee1A kinase (CDK1 Tyr15 phosphorylation in ACHN renal cell carcinoma cells) (Homo sapiens, UniProt P30291); experiment: High-content imaging of pCdk1 Y15, Wee1A kinase target engagement in ACHN cells; type: cell-based; details: 4 h treatment, nuclear positivity for pCdk1 Y15 vs DMSO control, read-out: CDK1 Tyr15 Phosphorylation EC50
T3 construct: pCDK1 Tyr15 immunofluorescence read-out
Procedure, shortened: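 EC50 values come from the per-well fraction of cells with nuclear pCdk1 Y15 staining, normalised to DMSO control, by automated immunofluorescence imaging. Cells were ACHN renal carcinoma, treated 4 h with compound at 7–5,000 nM or 0.3–200 nM.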

[4] = biological target: T4, Myt1 kinase (CDK1 Thr14 phosphorylation in DAOY medulloblastoma cells) (Homo sapiens, UniProt Q99640); experiment: AlphaLISA assay, Myt1 kinase target engagement (phospho-CDK1 Thr14) in DAOY cells; type: cell-based; details: 4 h treatment, read-out: CDK1 Thr14 Phosphorylation EC50
T4 construct: pCDK1 Thr14 AlphaLISA read-out
T4 sequence (Q99640 1-499): T1 sequence (Q99640 1-499)
Description: Each of an ACHN renal cell carcinoma cell line (ATCC) and a DAOY medulloblastoma cell line, and an A427 lung cancer line were cultured in Minimum Essential Medium Eagle supplemented with 10% fetal calf serum (Sigma), 1% Penicillin-Streptomycin and 10 mM HEPES buffer (HyClone). Cell cultures were kept in a humidified incubator at 37 °C and 5% CO2. Cells were routinely tested for Mycoplasma contamination.
For target engagement assessment of Myt1 kinase inhibition, quantification of Cdk1 phosphorylated on threonine 14 was detected using the AlphaLISA® SureFire® Ultra™ Human Phospho-CDK1 (Thr14) assay (Perkin Elmer). DAOY or ACHN cells were seeded into tissue culture treated 96-well plates (VWR) to a density of 10,000 or 20,000 cells per well respectively. 24 h post seeding cells were treated for 4 h with compounds at concentrations ranging from 7 to 5000 nM. Cells were washed with PBS and lysed in 50 μl AlphaLISA lysis buffer before freezing at −80 C. Ten ul of the lysate was transferred to 384 well plates and incubated with AlphaLISA donor and acceptor beads according to the manufacturer's instructions. Dose response curves and EC50 values were calculated and visualized using GraphPad Prism version 9. Target engagement for Myt1 kinase can also be measured using the same AlphaLISA assay in OVCAR3 cells, an ovarian cancer cell line. NIH:OVCAR-3 (OVCAR3) cells are cultured in RPMI-1640 medium supplemented with 0.01 mg/ml insulin, 20% FBS, 1% Penicillin-Streptomycin and 10 mM HEPES buffer. 14,000 cells per well are seeded into 96 well tissue culture plates in full medium. Twenty-four hours post seeding, cells are treated with compound for 4 hours at concentrations ranging from 0.017 nM to 1000 nM.

[5] = test system: ACHN cells; experiment: Cell Titer Glo viability assay, ACHN cells; type: cell-based; details: Homo sapiens, 144 h, absolute EC50
Procedure, shortened: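 Cells grown in MEM with 10% FCS were seeded at 500 (A427), 400 (ACHN) or 250 (DAOY) per well and treated the next day with compound at 17 to 10 000 nM. Viability relative to untreated control was read at 144 h by CellTiter-Glo 2.0.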

T3 sequence (P30291 whole entry): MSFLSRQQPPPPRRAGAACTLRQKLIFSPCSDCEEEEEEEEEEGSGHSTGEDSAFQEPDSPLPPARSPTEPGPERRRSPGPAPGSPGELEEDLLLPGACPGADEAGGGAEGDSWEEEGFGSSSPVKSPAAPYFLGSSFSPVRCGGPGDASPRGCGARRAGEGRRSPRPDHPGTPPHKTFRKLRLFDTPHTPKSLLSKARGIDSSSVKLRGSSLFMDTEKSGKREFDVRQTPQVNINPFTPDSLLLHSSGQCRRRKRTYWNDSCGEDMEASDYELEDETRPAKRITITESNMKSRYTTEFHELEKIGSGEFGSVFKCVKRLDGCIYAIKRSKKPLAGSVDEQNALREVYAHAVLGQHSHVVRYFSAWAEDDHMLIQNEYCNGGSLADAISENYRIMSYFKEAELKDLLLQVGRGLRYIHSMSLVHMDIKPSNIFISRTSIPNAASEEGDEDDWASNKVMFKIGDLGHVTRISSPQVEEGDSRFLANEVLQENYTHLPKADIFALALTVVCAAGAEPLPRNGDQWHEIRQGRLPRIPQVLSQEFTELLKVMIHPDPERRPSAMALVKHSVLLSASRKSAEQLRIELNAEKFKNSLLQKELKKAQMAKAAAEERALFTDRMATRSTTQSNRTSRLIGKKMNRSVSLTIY
T2 sequence (P30291 whole entry): as above

Structure (SMILES)	IC50 [1]	IC50 [2]	EC50 [3]	EC50 [4]	EC50 [5]
C=CCn1c(=O)c2cnc(Nc3cccnc3)nc2n1-c1cccc(OC2CCNCC2)n1 [Compound 230, 2-allyl-1-[6-(4-piperidyloxy)-2-pyridyl]-6-(3-pyridylamino)-1,2-dihydro-3H-1,2,5,7-tetraazainden-3-one]	< 0.02 µM	< 0.01 µM	> 1 µM	> 1 µM	–
C=CCn1c(=O)c2cnc(Nc3ccc4sncc4c3)nc2n1-c1cccc(OC2CCNCC2)n1 [Compound 228, 2-allyl-6-(1,2-benzisothiazol-5-ylamino)-1-[6-(4-piperidyloxy)-2-pyridyl]-1,2-dihydro-3H-1,2,5,7-tetraazainden-3-one]	< 0.02 µM	< 0.01 µM	0.1 to 0.5 µM	> 1 µM	–
C=CCn1c(=O)c2cnc(Nc3ccc4cnoc4c3)nc2n1-c1cccc(OC2CCN(C)CC2)n1 [Compound 299, 2-allyl-6-(1,2-benzisoxazol-6-ylamino)-1-[6-(1-methyl-4-piperidyloxy)-2-pyridyl]-1,2-dihydro-3H-1,2,5,7-tetraazainden-3-one]	0.02 to 0.1 µM	< 0.01 µM	0.5 to 1 µM	> 1 µM	–
C=CCn1c(=O)c2cnc(Nc3ccc(N4CCOCC4)c(C)c3)nc2n1-c1cccc(OC2CCN(C)CC2)n1 [Compound 270, 2-allyl-1-[6-(1-methyl-4-piperidyloxy)-2-pyridyl]-6-(4-morpholino-3-toluidino)-1,2-dihydro-3H-1,2,5,7-tetraazainden-3-one]	< 0.02 µM	< 0.01 µM	< 0.1 µM	< 0.2 µM	≤ 0.1 µM
C=CCn1c(=O)c2cnc(Nc3ccc4nccnc4c3)nc2n1-c1cccc(OC2CCN(C)CC2)n1 [Compound 241, 2-allyl-1-[6-(1-methyl-4-piperidyloxy)-2-pyridyl]-6-(6-quinoxalinylamino)-1,2-dihydro-3H-1,2,5,7-tetraazainden-3-one]	< 0.02 µM	< 0.01 µM	–	0.2 to 0.5 µM	≤ 0.1 µM
C=CCn1c(=O)c2cnc(Nc3ccc(N4CCSCC4)cc3)nc2n1-c1cccc(OC2CCN(C)CC2)n1 [Compound 261, 2-allyl-1-[6-(1-methyl-4-piperidyloxy)-2-pyridyl]-6-[p-(1,4-thiazinan-4-yl)phenylamino]-1,2-dihydro-3H-1,2,5,7-tetraazainden-3-one]	< 0.02 µM	< 0.01 µM	–	0.2 to 0.5 µM	≤ 0.1 µM

Now from value to compound:

IC50 [1]	IC50 [2]	EC50 [3]	EC50 [4]	EC50 [5]	Structure (SMILES)
< 0.02 µM	< 0.01 µM	0.1 to 0.5 µM	0.5 to 1 µM	0.1 to 0.5 µM	C=CCn1c(=O)c2cnc(Nc3ccc4ncccc4c3)nc2n1-c1cccc(OC2CCNCC2)n1 [Compound 242, 2-allyl-1-[6-(4-piperidyloxy)-2-pyridyl]-6-(6-quinolylamino)-1,2-dihydro-3H-1,2,5,7-tetraazainden-3-one]
< 0.02 µM	< 0.01 µM	< 0.1 µM	0.2 to 0.5 µM	≤ 0.1 µM	C=CCn1c(=O)c2cnc(Nc3ccc(OCC4CC4)cc3)nc2n1-c1cccc(OC2CCN(C)CC2)n1 [Compound 258, 2-allyl-6-((4-(cyclopropylmethoxy)phenyl)amino)-1-(6-((1-methylpiperidin-4-yl)oxy)pyridin-2-yl)-1,2-dihydro-3H-pyrazolo[3,4-d]pyrimidin-3-one]
0.02 to 0.1 µM	< 0.01 µM	0.1 to 0.5 µM	> 1 µM	≤ 0.1 µM	C=CCn1c(=O)c2cnc(Nc3cccnc3)nc2n1-c1cccc(OC2CCN(C)CC2)n1 [Compound 229, 2-allyl-1-[6-(1-methyl-4-piperidyloxy)-2-pyridyl]-6-(3-pyridylamino)-1,2-dihydro-3H-1,2,5,7-tetraazainden-3-one]
0.02 to 0.1 µM	< 0.01 µM	0.1 to 0.5 µM	> 1 µM	0.5 to 1 µM	C=CCn1c(=O)c2cnc(Nc3ccc4c(c3)ncn4C)nc2n1-c1cccc(OC2CCNCC2)n1 [Compound 319, 2-allyl-6-((1-methyl-1H-benzo[d]imidazol-5-yl)amino)-1-(6-(piperidin-4-yloxy)pyridin-2-yl)-1,2-dihydro-3H-pyrazolo[3,4-d]pyrimidin-3-one]
< 0.02 µM	< 0.01 µM	< 0.1 µM	> 1 µM	–	C=CCn1c(=O)c2cnc(Nc3ccc(N4CCS(=O)(=O)CC4)cc3)nc2n1-c1cccc(OC2CCN(C)CC2)n1 [Compound 369, 4-(p-{2-allyl-1-[6-(1-methyl-4-piperidyloxy)-2-pyridyl]-3-oxo-1,2-dihydro-3H-1,2,5,7-tetraazainden-6-ylamino}phenyl)-1λ^6,4-thiazinane-1,1-dione]
0.02 to 0.1 µM	< 0.01 µM	< 0.1 µM	0.5 to 1 µM	0.1 to 0.5 µM	C=CCn1c(=O)c2cnc(Nc3ccc4cnccc4c3)nc2n1-c1cccc(OC2CCNCC2)n1 [Compound 244, 2-allyl-6-(6-isoquinolylamino)-1-[6-(4-piperidyloxy)-2-pyridyl]-1,2-dihydro-3H-1,2,5,7-tetraazainden-3-one]
< 0.02 µM	< 0.01 µM	< 0.1 µM	0.2 to 0.5 µM	–	C=CCn1c(=O)c2cnc(Nc3ccc4c(cnn4C(C)C)c3)nc2n1-c1cccc(OC2CCNCC2)n1 [Compound 265, 2-allyl-6-(1-isopropyl-1H-indazol-5-ylamino)-1-[6-(4-piperidyloxy)-2-pyridyl]-1,2-dihydro-3H-1,2,5,7-tetraazainden-3-one]
< 0.02 µM	< 0.01 µM	< 0.1 µM	0.2 to 0.5 µM	–	C=CCn1c(=O)c2cnc(Nc3ccc4oc(C)nc4c3)nc2n1-c1cccc(OC2CCNCC2)n1 [Compound 232, 2-allyl-6-(2-methyl-1,3-benzoxazol-5-ylamino)-1-[6-(4-piperidyloxy)-2-pyridyl]-1,2-dihydro-3H-1,2,5,7-tetraazainden-3-one]
< 0.02 µM	< 0.01 µM	0.1 to 0.5 µM	> 1 µM	–	C=CCn1c(=O)c2cnc(Nc3cnn(C)c3)nc2n1-c1cccc(OC2CC3CCCC(C2)N3C)n1 (stereo not drawn) [Compound 194, 2-allyl-1-{6-(9-methyl-9-azabicyclo[3.3.1]non-3-yloxy)-2-pyridyl}-6-(1-methyl-4-pyrazolylamino)-1,2-dihydro-3H-1,2,5,7-tetraazainden-3-one]

From US20260364080A1, “PYRAZOLO-PYRIMIDINONE COMPOUNDS FOR USE IN METHODS OF INHIBITING WEE1 A KINASE” (Acrivon Therapeutics, Inc., priority 2023, published 2026)
